# Results from patent US10780092B2, “Fused pyrazine derivatives useful as soluble guanylate cyclase stimulators” (Merck Sharp & Dohme Corp., priority 2016, dated 2020).
# Tests used:
# [1] = biological target: sGC α1/β1 heterodimer (Homo sapiens (Human), UniProt Q02108+Q02153); assay: Cell-based sGC functional assay (CASA assay), cGMP by HTRF; settings: CHO-K1/sGC cells; for Emax: CHO-K1, cGMP production as percentage of maximum of compound A (set to 100%), read-out: % Activation; for EC50: inflection point of cGMP production, 4P fit, read-out: IP
# Procedure, shortened: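 cGMP made in CHO-K1/sGC (human α1/β1) cells is read by HTRF after compound treatment for 1 hr at 37° C, following 30 min at 25° C with or without 1 μM DETA-NO; IBMX 0.5 mM present. Values are % of standard compound maximum; 4P fit.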
# [2] = biological target: human recombinant sGC enzyme (Homo sapiens (Human), UniProt Q02108+Q02153); assay: SEC competition binding assay with [3H] Compound B radioligand; settings: displacement of 1.6 nM [3H] Compound B, 24 h at 37° C.
# Procedure, shortened: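 Competition format: [3H] Compound B (1.6 nM) displaced from human recombinant sGC over 24 h at 37° C. in triethanolamine pH 7.4 buffer with MgCl2, BSA, DTT, 300 μM DETA/NO and 400 μM GTP (1% DMSO). Gel-filtration eluates counted by liquid scintillation; 1 μM Compound B defined non-specific binding; Ki by one-site fit.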
SMILES,Emax [1] [%],EC50 [1] [nM],Ki [2] [nM],% Activation ([1]; cGMP production as percentage of maximum of compound A (set to 100%)) [%]
"CC1(c2ccc(Cl)c(O)c2)C(=O)Nc2nc(-c3cn4ncnc4c(CCCCF)n3)nc(N)c21 (stereo not drawn) [Example 106-A, 4-Amino-5-(4-chloro-3-hydroxyphenyl)-2-(8-(4-fluorobutyl)-[1,2,4]triazolo[1,5-a]pyrazin-6-yl)-5-methyl-5,7-dihydro-6H-pyrrolo[2,3-d]pyrimidin-6-one]",81,902,1.84,–
"CC1(c2ccc(Cl)c(O)c2)C(=O)Nc2nc(-c3cn4ccnc4c(Cc4ccc(F)cc4)n3)nc(N)c21 (stereo not drawn) [Example 30-A, 4-Amino-5-(4-chloro-3-hydroxyphenyl)-2-{8-[(4-fluorophenyl)methyl]imidazo[1,2-a]pyrazin-6-yl}-5-methyl-5,7-dihydro-6H-pyrrolo[2,3-d]pyrimidin-6-one]",88,866,0.292,–
"CC(C)CCc1nc(-c2nc(N)c3c(n2)NC(=O)C3(C)c2ccc(C(F)(F)F)c(O)c2)cn2ccnc12 (stereo not drawn) [Example 64-B, 4-Amino-5-(3-hydroxy-4-(trifluoromethyl)phenyl)-2-(8-isopentylimidazo[1,2-a]pyrazin-6-yl)-5-methyl-5,7-dihydro-6H-pyrrolo[2,3-d]pyrimidin-6-one]",125,1320,2.22,–
"CC1(c2ccc(C(F)(F)F)c(O)c2)C(=O)Nc2nc(-c3cn4ccnc4c(Cc4cccc(F)c4)n3)nc(N)c21 (stereo not drawn) [Example 17-B, 4-Amino-2-{8-[(3-fluorophenyl)methyl]imidazo[1,2-a]pyrazin-6-yl}-5-(3-hydroxy-4-(trifluoromethyl)phenyl)-5-methyl-5,7-dihydro-6H-pyrrolo[2,3-d]pyrimidin-6-one]",117,482,0.163,–
"CC1(c2ccc(Cl)c(O)c2)C(=O)Nc2nc(-c3cn4ncnc4c(CCC(F)(F)C(F)(F)F)n3)nc(NCC(O)C(F)(F)F)c21 (single isomer, unassigned) [Example 133-AB, 5-(4-Chloro-3-hydroxy-phenyl)-5-methyl-2-(8-(3,3,4,4,4-pentafluoro-butyl)-[1,2,4]triazolo-[1,5-a]pyrazin-6-yl)-4-[(3,3,3-trifluoro-2-hydroxypropyl)amino]-5,7-dihydro-6H-pyrrolo-[2,3-d]pyrimidin-6-one]",–,3380,9.24,48
"CC1CCC(Cc2nc(-c3nc(N)c4c(n3)NC(=O)C4(C)c3ccc(Cl)c(O)c3)cn3ccnc23)CC1 (stereo not drawn) [Example 108-AA, 4-Amino-5-(4-chloro-3-hydroxyphenyl)-5-methyl-2-{8-[(4-methylcyclo-hexyl)methyl]imidazo-[1,2-a]pyrazin-6-yl}-5,7-dihydro-6H-pyrrolo-[2,3-d]pyrimidin-6-one]",118,198,0.924,–
"CCCCc1nc(-c2nc(N)c3c(n2)NC(=O)C3(C)c2ccc(C(F)(F)F)c(O)c2)cn2ccnc12 (stereo not drawn) [Example 76-B, 4-Amino-2-(8-butylimidazo[1,2-a]pyrazin-6-yl)-5-(3-hydroxy-4-(trifluoromethyl)phenyl)-5-methyl-5,7-dihydro-6H-pyrrolo[2,3-d]pyrimidin-6-one]",110,547,7.89,–
"CC1(c2ccc(Cl)c(O)c2)C(=O)Nc2nc(-c3cn4ccnc4c(CC4CCC(F)(F)CC4)n3)nc(N)c21 (stereo not drawn) [Example 95-A, 4-Amino-5-(4-chloro-3-hydroxyphenyl)-2-(8-((4,4-difluorocyclohexyl)methyl)imidazo [1,2-a]pyrazin-6-yl)-5-methyl-5,7-dihydro-6H-pyrrolo[2,3-d]pyrimidin-6-one]",96,1810,14.4,–
"CC1(c2ccc(O)cc2)C(=O)Nc2nc(-c3cn4ccnc4c(CCC4CCCCC4)n3)nc(N)c21 (stereo not drawn) [Example 85-B, 4-Amino-2-(8-(2-cyclohexylethyl)imidazo[1,2-a]pyrazin-6-yl)-5-(4-hydroxyphenyl)-5-methyl-5,7-dihydro-6H-pyrrolo[2,3-d]pyrimidin-6-one]",130,605,4.82,–
"CC1(c2cc(O)c(Cl)c(F)c2)C(=O)Nc2nc(-c3cn4ccnc4c(Cc4cccc(F)c4)n3)nc(N)c21 (stereo not drawn) [Example 5-B, 4-Amino-5-(4-chloro-3-fluoro-5-hydroxyphenyl)-2-{8-[(3-fluorophenyl)methyl]imidazo[1,2-a]pyrazin-6-yl}-5-methyl-5,7-dihydro-6H-pyrrolo[2,3-d]pyrimidin-6-one]",113,188,0.091,–
"CC1(c2cc(O)c(Cl)cn2)C(=O)Nc2nc(-c3cn4ccnc4c(CC4CCCC4)n3)nc(N)c21 (stereo not drawn) [Example 141-B, 4-amino-5-(5-chloro-4-hydroxypyridin-2-yl)-2-(8-(cyclopentylmethyl)-imidazo[1,2-a]pyrazin-6-yl)-5-methyl-5,7-dihydro-6H-pyrrolo-[2,3-d]pyrimidin-6-one]",99,1350,0.706,–
"CC1(c2ccc(O)cc2)C(=O)Nc2nc(-c3cn4ccnc4c(Cc4ccc(F)cc4)n3)nc(N)c21 (stereo not drawn) [Example 43-B, 4-Amino-2-{8-[(4-fluorophenyl)methyl]imidazo[1,2-a]pyrazin-6-yl}-5-(4-hydroxyphenyl)-5-methyl-5,7-dihydro-6H-pyrrolo[2,3-d]pyrimidin-6-one]",101,142,0.457,–
"CC1(c2ccc(O)c(Cl)c2)C(=O)Nc2nc(-c3cn4ccnc4c(Cc4cccc(F)c4)n3)nc(N)c21 (stereo not drawn) [Example 35-B, 4-Amino-5-(3-chloro-4-hydroxyphenyl)-2-{8-[(3-fluorophenyl)methyl]imidazo[1,2-a]pyrazin-6-yl}-5-methyl-5,7-dihydro-6H-pyrrolo[2,3-d]pyrimidin-6-one]",147,402,0.333,–
"CC1(c2ccc(F)c(Cl)c2O)C(=O)Nc2nc(-c3cn4ccnc4c(Cc4cc(F)cc(F)c4)n3)nc(N)c21 (stereo not drawn) [Example 96-B, 4-Amino-5-(3-chloro-4-fluoro-2-hydroxyphenyl)-2-{8-[(3,5-difluorophenyl)methyl]imidazo[1,2-a]pyrazin-6-yl}-5-methyl-5,7-dihydro-6H-pyrrolo[2,3-d]pyrimidin-6-one]",169,138,0.862,–

# The remaining compounds from weak to strong by EC50 [1], led by results:
Emax [1] [%],EC50 [1] [nM],Ki [2] [nM],% Activation ([1]; cGMP production as percentage of maximum of compound A (set to 100%)) [%],SMILES
112,137,4.95,–,"CC1(c2ccc(F)c(O)c2)C(=O)Nc2nc(-c3cn4ncnc4c(CCC(F)(F)C(F)(F)F)n3)nc(N)c21 (racemic) [Example 114-B, 4-Amino-5-(4-fluoro-3-hydroxyphenyl)-5-methyl-2-(8-(3,3,4,4,4-pentafluorobutyl)-[1,2,4]-triazolo[1,5-a]pyrazin-6-yl)-5,7-dihydro-6H-pyrrolo(2,3-d]pyrimidin-6-one]"
105,121,2.08,–,"CCCCc1nc(-c2nc(N)c3c(n2)NC(=O)C3(C)c2ccc(C(F)(F)F)c(O)c2)cn2ncnc12 (stereo not drawn) [Example 61-B, 4-Amino-2-(8-butyl-[1,2,4]triazolo[1,5-a]pyrazin-6-yl)-5-(3-hydroxy-4-(trifluoromethyl)phenyl)-5-methyl-5,7-dihydro-6H-pyrrolo[2,3-d]pyrimidin-6-one]"
138,94,2.43,–,"CC1(c2ccc(Cl)c(O)c2)C(=O)Nc2nc(-c3cn4ccnc4c(Cc4c(F)cccc4F)n3)nc(N)c21 (stereo not drawn) [Example 90-A, 4-Amino-5-(4-chloro-3-hydroxyphenyl)-2-{8-[(2,6-difluorophenyl)methyl]imidazo[1,2-a]pyrazin-6-yl}-5-methyl-5,7-dihydro-6H-pyrrolo[2,3-d]pyrimidin-6-one]"
113,94,0.094,–,"CC1(c2cc(O)c(Cl)c(F)c2)C(=O)Nc2nc(-c3cn4ccnc4c(Cc4cc(F)ccc4F)n3)nc(N)c21 (stereo not drawn) [Example 6-B, 4-Amino-5-(4-chloro-3-fluoro-5-hydroxyphenyl)-2-{8-[(2,5-difluorophenyl)methyl]imidazo[1,2-a]pyrazin-6-yl}-5-methyl-5,7-dihydro-6H-pyrrolo[2,3-d]pyrimidin-6-one]"
175,70,0.775,–,"CCCCc1nc(-c2nc(N)c3c(n2)NC(=O)C3(C)c2ccc(Cl)c(O)c2)cn2ncnc12 (stereo not drawn) [Example 50-A, 4-Amino-2-(8-butyl-[1,2,4]triazolo[1,5-a]pyrazin-6-yl)-5-(4-chloro-3-hydroxyphenyl)-5-methyl-5,7-dihydro-6H-pyrrolo[2,3-d]pyrimidin-6-one]"
117,69,0.427,–,"CC1(c2ccc(F)c(O)c2)C(=O)Nc2nc(-c3cn4ccnc4c(Cc4ccc(F)cc4)n3)nc(N)c21 (stereo not drawn) [Example 37-B, 4-Amino-5-(4-fluoro-3-hydroxyphenyl)-2-{8-[(4-fluorophenyl)methyl]imidazo[1,2-a]pyrazin-6-yl}-5-methyl-5,7-dihydro-6H-pyrrolo[2,3-d]pyrimidin-6-one]"
112,16,1.78,–,"CC1(c2cc(Cl)c(O)c(Cl)c2)C(=O)Nc2nc(-c3cn4ncnc4c(CC4CCCCC4)n3)nc(N)c21 (stereo not drawn) [Example 112-B, 4-Amino-2-(8-(cyclo-hexylmethyl)-[1,2,4]-triazolo[1,5-a]pyrazin-6-yl)-5-(3,5-dichloro-4-hydroxyphenyl)-5-methyl-5,7-dihydro-6H-pyrrolo[2,3-d]pyrimidin-6-one]"
